The results in this text go back to patent US12338256B2, “Aza-tetracyclic oxazepine compounds and uses thereof” (Genentech, Inc., priority 2022, dated 2025).

In general, IC50 refers to the midpoint of a concentration-inhibition curve.

Common to all, as to assay type: cell-based
In test [1] the test system is H1975 (KRAS wild type human lung adenocarcinoma cell line). In words: KRAS 3D-Cell Proliferation Assay, H1975 (Example 503). The following applies: Homo sapiens, NCI-H1975, 168 h, H1975 3D culture, 7 days, CellTiter-Glo 3D; read-out: Prolif H1975 3D ATP IC50. An outline of the steps:
(§1)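 KRAS G12D homozygous pancreatic lines and KRAS wild-type lung lines grown as 3D cultures in ultra-low-attachment wells in RPMI-1640/10% FBS, dosed after overnight with compound dilution series (0.3% DMSO final) for 7 days at 37 °C. ATP read by CellTiter-Glo 3D luminescence; IC50 from 4-parameter Hill fit, normalized to DMSO and 1 μM staurosporine.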
On the technique in general: In ATP-based viability assays light output follows the ATP content of the culture.

Test [2] deals with HPAC (homozygous mutant KRAS G12D human pancreatic cell line). In words: KRAS 3D-Cell Proliferation Assay, HPAC (Example 503). The note with it: Homo sapiens, HPAC, 168 h, HPAC 3D culture, 7 days, CellTiter-Glo 3D; read-out: Prolif HPAC 3D ATP IC50. The method in brief:
as §1

For test [3], the system named is AsPC-1 (homozygous mutant KRAS G12D human pancreatic cell line). In words: KRAS 3D-Cell Proliferation Assay, AsPC-1 (Example 503). The following applies: Homo sapiens, ASPC1, 168 h, AsPC-1 3D culture, 7 days, CellTiter-Glo 3D; read-out: Prolif AsPC-1 3D ATP IC50. As to the method:
Example 503: KRAS 3D-Cell Proliferation Assays. Cellular potencies of compounds are assessed by evaluating inhibition of proliferation in 3D cultures of homozygous mutant KRAS G12D human pancreatic cell lines (AsPC-1 and HPAC) as compared to a KRAS wild type human lung adenocarcinoma cell line (PC-9 and/or H1975). Cells are seeded into 384-well black round-bottom, ultra-low attachment assay plates in 50 uL cell growth medium (RPMI-1640 with 10% fetal bovine serum and 2 mM L-glutamine). After overnight incubation at 37° C. and 5% CO2, compounds solubilized in DMSO are added as dilution series to the wells in a total volume of 150 nL (0.3% DMSO final). The cells are incubated for 7 days at 37° C. and 5% CO2. Cell proliferation is quantitated by addition of 40 uL/well of CellTiter-GloÒ 3D (Promega), and the well contents are mixed 20× at high speed using liquid handling automation workstation (Bravo with 384-well head) and centrifuged at 1500 rpm for 2 minutes to eliminate bubbles. This reagent in combination with mechanical disruption releases the cellular ATP to promote activity in a luciferase-based enzyme/substrate chemiluminescent detection system. After a 30-minute incubation under ambient conditions with shaking and an additional 10 minutes without shaking, the luminescence is read on a plate reader (e.g., EnVision [PerkinElmer]). The results are normalized to percent inhibition based on the following control samples: DMSO (0% inhibition) and 1 μM staurosporine (100% inhibition). The normalized luminescence results are plotted against compound concentration, and the data are fit to a 4-parameter Hill equation to determine the IC50 values.

As to `Cc1c(F)c(N)cc(-c2nc3c4c(nc(OC[C@@]56CCCN5C[C@H](F)C6)nc4c2F)N2C[C@H]4CC[C@H](N4)[C@H]2[C@H](C)O3)c1CC(F)F` [Compound 75, 4-(2,2-Difluoroethyl)-2-fluoro-5-((5S,5aS,6S,9R)-1-fluoro-12-(((2R,7aS)-2-fluorotetrahydro-1H-pyrrolizin-7a(5H)-yl)methoxy)-5-methyl-5a,6,7,8,9,10-hexahydro-5H-4-oxa-3,10a,11,13,14-pentaaza-6,9-methanonaphtho[1,8-ab]heptalen-2-yl)-3-methylaniline], the IC50 in test [1] was 797 nM; in test [2], 2.77 nM; in test [3] it was 5.2 nM.
For `C[C@@H]1Oc2nc(-c3cc(N)cc(F)c3C(F)(F)F)c(F)c3nc(OC[C@@H]4CC[C@H]5COCCN54)nc(c23)N2C[C@H]3CC[C@H](N3)[C@@H]12` [Compound 77, 3-Fluoro-5-((5S,5aS,6S,9R)-1-fluoro-12-(((6S,8aS)-hexahydro-1H-pyrrolo[2,1-c][1,4]oxazin-6-yl)methoxy)-5-methyl-5a,6,7,8,9,10-hexahydro-5H-4-oxa-3,10a,11,13,14-pentaaza-6,9-methanonaphtho[1,8-ab]heptalen-2-yl)-4-(trifluoromethyl)aniline], the IC50 stood at 358 nM in test [1], 2.79 nM in test [2] and 11.9 nM in test [3].
As for `C[C@@H]1Oc2nc(-c3c(C(F)(F)F)cc(F)c(N)c3F)c(F)c3nc(OC[C@@]45CCCN4C[C@H](F)C5)nc(c23)N2C[C@H]3CC[C@H](N3)[C@@H]12` [Compound 90, 2,6-Difluoro-3-((5S,5aS,6S,9R)-1-fluoro-12-(((2R,7aS)-2-fluorotetrahydro-1H-pyrrolizin-7a(5H)-yl)methoxy)-5-methyl-5a,6,7,8,9,10-hexahydro-5H-4-oxa-3,10a,11,13,14-pentaaza-6,9-methanonaphtho[1,8-ab]heptalen-2-yl)-4-(trifluoromethyl)aniline], the values for the 50% inhibitory concentration (IC50) in test [1], in test [2] and in test [3] were 1140 nM, 7.3 nM and 18.9 nM, respectively.
As to `Cc1c(F)c(N)c(F)c(-c2nc3c4c(nc(OC[C@@]56CCCN5C[C@H](F)C6)nc4c2F)N2C[C@H]4CC[C@H](N4)[C@H]2[C@H](C)O3)c1C(F)(F)F` [Compound 91, 2,6-Difluoro-3-((5S,5aS,6S,9R)-1-fluoro-12-(((2R,7aS)-2-fluorotetrahydro-1H-pyrrolizin-7a(5H)-yl)methoxy)-5-methyl-5a,6,7,8,9,10-hexahydro-5H-4-oxa-3,10a,11,13,14-pentaaza-6,9-methanonaphtho[1,8-ab]heptalen-2-yl)-5-methyl-4-(trifluoromethyl)aniline], the values for the IC50 in test [1], in test [2] and in test [3] were 953 nM, 1.25 nM and 1.3 nM, respectively.
On to `Cc1c(F)c(N)c(F)c(-c2nc3c4c(nc(OC[C@@H]5CC[C@H]6COCCN65)nc4c2F)N2C[C@H]4CC[C@H](N4)[C@H]2[C@H](C)O3)c1C(F)(F)F` [Compound 96, 2,6-Difluoro-3-((5S,5aS,6S,9R)-1-fluoro-12-(((6S,8aS)-hexahydro-1H-pyrrolo[2,1-c][1,4]oxazin-6-yl)methoxy)-5-methyl-5a,6,7,8,9,10-hexahydro-5H-4-oxa-3,10a,11,13,14-pentaaza-6,9-methanonaphtho[1,8-ab]heptalen-2-yl)-5-methyl-4-(trifluoromethyl)aniline], for which the half-inhibitory concentration (IC50) in test [1] was 982 nM; in test [2], 3.69 nM; in test [3] it was 5.8 nM.
`Cc1cc(N)c(F)c(-c2nc3c4c(nc(OC[C@@H]5CC[C@H]6COCCN65)nc4c2F)N2C[C@H]4CC[C@H](N4)[C@H]2[C@H](C)O3)c1C(F)(F)F` [Compound 97, 2-Fluoro-3-((5S,5aS,6S,9R)-1-fluoro-12-(((6S,8aS)-hexahydro-1H-pyrrolo[2,1-c][1,4]oxazin-6-yl)methoxy)-5-methyl-5a,6,7,8,9,10-hexahydro-5H-4-oxa-3,10a,11,13,14-pentaaza-6,9-methanonaphtho[1,8-ab]heptalen-2-yl)-5-methyl-4-(trifluoromethyl)aniline]: the IC50 in test [1] came out at 573 nM; in test [2], 3.21 nM; in test [3], 10.1 nM.
In the case of `C[C@@H]1Oc2nc(-c3cc(N)c(F)c(Cl)c3C(F)(F)F)c(F)c3nc(OC[C@@]45CCCN4C[C@H](F)C5)nc(c23)N2C[C@H]3CC[C@H](N3)[C@@H]12` [Compound 104, 3-Chloro-2-fluoro-5-((5S,5aS,6S,9R)-1-fluoro-12-(((2R,7aS)-2-fluorotetrahydro-1H-pyrrolizin-7a(5H)-yl)methoxy)-5-methyl-5a,6,7,8,9,10-hexahydro-5H-4-oxa-3,10a,11,13,14-pentaaza-6,9-methanonaphtho[1,8-ab]heptalen-2-yl)-4-(trifluoromethyl)aniline], the IC50 in test [1] worked out at 221 nM; in test [2], 0.65 nM; in test [3], 1.4 nM.
On to `Cc1nc(N)cc(-c2nc3c4c(nc(OC[C@@H]5CC[C@H]6COCCN65)nc4c2F)N2C[C@H]4CC[C@H](N4)[C@H]2[C@H](C)O3)c1C(F)(F)F` [Compound 112, 4-((5S,5aS,6S,9R)-1-fluoro-12-(((6S,8aS)-hexahydro-1H-pyrrolo[2,1-c][1,4]oxazin-6-yl)methoxy)-5-methyl-5a,6,7,8,9,10-hexahydro-5H-4-oxa-3,10a,11,13,14-pentaaza-6,9-methanonaphtho[1,8-ab]heptalen-2-yl)-6-methyl-5-(trifluoromethyl)pyridin-2-amine], for which the IC50 in test [1] came out at 1470 nM; in test [2], 7.59 nM; in test [3], 31.6 nM.
Take `Cc1c(F)c(N)cc(-c2nc3c4c(nc(OCC5(CN6CCOCC6)CC5)nc4c2F)N2C[C@H]4CC[C@H](N4)[C@H]2[C@H](C)O3)c1C(F)(F)F` [Compound 118, 2-Fluoro-5-((5S,5aS,6S,9R)-1-fluoro-5-methyl-12-((1-(morpholinomethyl)cyclopropyl)methoxy)-5a,6,7,8,9,10-hexahydro-5H-4-oxa-3,10a,11,13,14-pentaaza-6,9-methanonaphtho[1,8-ab]heptalen-2-yl)-3-methyl-4-(trifluoromethyl)aniline]: the half-maximal inhibitory concentration (IC50) in test [1] was found to be 519 nM; in test [2], 0.43 nM; in test [3], 0.6 nM.
With `Cc1c(F)c(N)cc(-c2nc3c4c(nc(OCC5(CN6CCOC[C@H]6C)CC5)nc4c2F)N2C[C@H]4CC[C@H](N4)[C@H]2[C@H](C)O3)c1C(F)(F)F` [Compound 129, 2-Fluoro-5-((5S,5aS,6S,9R)-1-fluoro-5-methyl-12-((1-(((R)-3-methylmorpholino)methyl)cyclopropyl)methoxy)-5a,6,7,8,9,10-hexahydro-5H-4-oxa-3,10a,11,13,14-pentaaza-6,9-methanonaphtho[1,8-ab]heptalen-2-yl)-3-methyl-4-(trifluoromethyl)aniline], the IC50 in test [1] was found to be 1150 nM; in test [2] it was 1.1 nM; in test [3], 1 nM.
With `Cc1c(F)c(N)cc(-c2nc3c4c(nc(OC[C@@H]5[C@@H]6CCN5CCO6)nc4c2F)N2C[C@H]4CC[C@H](N4)[C@H]2[C@H](C)O3)c1C(F)(F)F` [Compound 136, 5-((5S,5aS,6S,9R)-12-(((5S,8R)-4-Oxa-1-azabicyclo[3.2.1]octan-8-yl)methoxy)-1-fluoro-5-methyl-5a,6,7,8,9,10-hexahydro-5H-4-oxa-3,10a,11,13,14-pentaaza-6,9-methanonaphtho[1,8-ab]heptalen-2-yl)-2-fluoro-3-methyl-4-(trifluoromethyl)aniline], the IC50 in test [1] worked out at 12300 nM; in test [2], 67.5 nM; in test [3] it was 200 nM.
